# Source: the supplement of paper PMC10307832
# Compound: CN1CCC(CC1)OC2=CC(=C(C=C2)NC3=NC=C4C(=N3)N(C(=O)N4C)C5CCCC5)OC [AZ3146] + C[C@]1(O)C[C@@H](c2nc(-c3ccc4ccc(-c5ccccc5)nc4c3)c3c(N)nccn32)C1 [Linsitinib] (partner 1 µM)
# Assay: relative viability (nuclei count vs DMSO), 5 days (fraction); higher = more cells survive
# Conditions: first compound 8 µM
# Outline: (§1)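 Lung cancer cell lines were seeded in 1536-well plates and dosed by pin tool the next day, with either a single drug or a fixed anchor-drug dose combined with five library-drug doses (not always all listed) spaced in √10 steps. Five days later, one step fixed the cells and stained their nuclei (final 0.05% Triton X-100, 1% formaldehyde, 1 ug/ml Hoechst), and nuclei were counted on 4× images. Relative viability is the nuclei count in treated wells divided by the count in vehicle wells, and each value is the median of duplicate plates.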
row,Cell Line,relative viability
1,HCC-366,0.855
2,ABC-1,0.977

# Compound: CN1CCC(CC1)OC2=CC(=C(C=C2)NC3=NC=C4C(=N3)N(C(=O)N4C)C5CCCC5)OC [AZ3146] + CC(=O)Nc1cccc(-n2c(=O)n(C3CC3)c(=O)c3c(Nc4ccc(I)cc4F)n(C)c(=O)c(C)c32)c1 [Trametinib] (partner 0.02 µM)
# Assay: as above
# Conditions: first compound 0.08 µM
# Outline: as §1
row,Cell Line,relative viability
1,NCI-H522,0.749
2,PC-14,0.728
3,NCI-H1666,0.848
4,EKVX,0.331
5,NCI-H1755,0.674
6,NCI-H2023,0.55
7,SK-LU-1,0.475
8,PC-3 [JPC-3],0.709
9,LOU-NH91,0.838
10,NCI-H647,0.365
11,NCI-H23,0.455
12,EPLC-272H,0.312
13,NCI-H2126,0.58
14,ChaGo-K-1,0.826
15,HCC-44,1.07
16,NCI-H1734,0.641
17,NCI-H650,0.899
18,LK-2,0.591
19,NCI-H2228,0.415
20,NCI-H2342,0.715
21,NCI-H1944,0.375
22,HARA,0.708
23,COR-L23,0.587
24,LCLC-103H,0.619
25,LXF-289,0.629
26,SW 900,0.696
27,NCI-H1650,0.594
28,HCC-366,0.31
29,NCI-H2170,0.888

# Same assay, conditions: first compound 0.253 µM
row,Cell Line,relative viability
1,NCI-H522,0.687
2,PC-14,0.821
3,NCI-H1666,0.875
4,EKVX,0.305
5,NCI-H1755,0.787
6,NCI-H2023,0.473
7,HCC-78,0.65
8,SK-LU-1,0.409
9,LOU-NH91,0.76
10,NCI-H647,0.44
11,NCI-H23,0.354
12,EPLC-272H,0.281
13,NCI-H2126,0.553
14,ChaGo-K-1,0.895
15,HCC-44,1.02
16,NCI-H1734,0.663
17,NCI-H650,0.959
18,LK-2,0.684
19,NCI-H2228,0.539
20,NCI-H2342,0.741
21,NCI-H1944,0.424
22,HARA,0.491
23,COR-L23,0.646
24,LCLC-103H,0.663
25,LXF-289,0.688
26,NCI-H1650,0.546
27,HCC-366,0.412
28,NCI-H2170,1.04

# Same assay, conditions: first compound 0.8 µM
row,Cell Line,relative viability
1,NCI-H522,0.747
2,PC-14,0.818
3,NCI-H1666,0.851
4,EKVX,0.202
5,NCI-H1755,0.714
6,NCI-H2023,0.616
7,HCC-78,0.738
8,SK-LU-1,0.436
9,PC-3 [JPC-3],0.596
10,LOU-NH91,0.867
11,NCI-H647,0.366
12,NCI-H23,0.391
13,EPLC-272H,0.272
14,NCI-H2126,0.503
15,ChaGo-K-1,0.836
16,HCC-44,0.996

row,Cell Line,relative viability
1,NCI-H1734,0.594
2,NCI-H650,0.959
3,LK-2,0.956
4,NCI-H2228,0.33
5,NCI-H2342,0.989
6,NCI-H1944,0.435
7,HARA,0.634
8,COR-L23,0.56
9,LCLC-103H,0.721
10,LXF-289,0.633
11,SW 900,0.557
12,NCI-H1648,0.219
13,NCI-H1650,0.602
14,HCC-366,0.311
15,NCI-H2170,0.861

# Same assay, conditions: first compound 2.53 µM
row,Cell Line,relative viability
1,NCI-H522,0.64
2,PC-14,0.796
3,NCI-H1666,0.887
4,EKVX,0.345
5,NCI-H1755,0.783
6,NCI-H2023,0.538
7,HCC-78,0.823
8,SK-LU-1,0.549
9,PC-3 [JPC-3],0.728
10,LOU-NH91,0.794
11,NCI-H647,0.476
12,NCI-H23,0.422
13,EPLC-272H,0.268
14,NCI-H2126,0.534
15,ChaGo-K-1,0.892
16,HCC-44,1.04

row,Cell Line,relative viability
1,NCI-H1734,0.662
2,NCI-H650,0.994
3,LK-2,0.914
4,NCI-H2228,0.44
5,NCI-H2342,0.89
6,NCI-H1944,0.45
7,HARA,0.858
8,COR-L23,0.718
9,LCLC-103H,0.666
10,LXF-289,0.651
11,SW 900,0.706
12,NCI-H1648,0.563
13,NCI-H1650,0.492
14,HCC-366,0.341
15,NCI-H2170,0.928

# Same assay, conditions: first compound 8 µM
row,Cell Line,relative viability
1,NCI-H522,0.74
2,PC-14,0.694
3,NCI-H1666,0.761
4,EKVX,0.332
5,NCI-H1755,0.785
6,NCI-H2023,0.442
7,HCC-78,0.749
8,SK-LU-1,0.432
9,PC-3 [JPC-3],0.626
10,LOU-NH91,0.781
11,NCI-H647,0.317
12,NCI-H23,0.402
13,EPLC-272H,0.247
14,NCI-H2126,0.547
15,ChaGo-K-1,0.957
16,HCC-44,1.15

row,Cell Line,relative viability
1,NCI-H1734,0.62
2,NCI-H650,1.09
3,LK-2,0.747
4,NCI-H2228,0.455
5,NCI-H2342,0.89
6,NCI-H1944,0.459
7,HARA,0.623
8,COR-L23,0.6
9,LCLC-103H,0.653
10,LXF-289,0.633
11,SW 900,0.819
12,NCI-H1648,0.568
13,NCI-H1650,0.414
14,HCC-366,0.316
15,NCI-H2170,0.859

# Compound: CCOC(=O)CCNc1cc(N2CCc3ccccc3CC2)nc(-c2ccccn2)n1 [GSK-J4] + Cc1nc(NC(=O)N2CCC[C@H]2C(N)=O)sc1-c1ccnc(C(C)(C)C(F)(F)F)c1 [Alpelisib] (partner 2 µM)
# Assay: as above
# Conditions: first compound 0.5 µM
# Outline: as §1
row,Cell Line,relative viability
1,PC-14,0.916
2,NCI-H1666,0.881
3,EKVX,0.848
4,NCI-H1755,0.897
5,NCI-H2023,0.604
6,HCC-78,0.403
7,SK-LU-1,0.927
8,PC-3 [JPC-3],0.984
9,LOU-NH91,0.743
10,NCI-H647,1.22
11,NCI-H23,0.781
12,EPLC-272H,0.887
13,NCI-H2126,0.763
14,HCC-44,0.791
15,NCI-H1734,0.679
16,NCI-H650,0.926
17,LK-2,1.04

row,Cell Line,relative viability
1,NCI-H2228,0.702
2,NCI-H1944,0.833
3,HARA,0.815
4,Calu-6,0.914
5,COR-L23,0.677
6,LCLC-103H,0.934
7,LXF-289,0.971
8,EBC-1,0.742
9,A549,0.765
10,NCI-H1299,1.01
11,IA-LM,0.77
12,NCI-H1703,0.286
13,NCI-H1563,0.885
14,HCC-366,0.391
15,NCI-H2170,0.787
16,ABC-1,1.2

# Same assay, conditions: first compound 1.581 µM
row,Cell Line,relative viability
1,PC-14,0.909
2,EKVX,0.769
3,NCI-H1755,0.763
4,NCI-H2023,0.471
5,HCC-78,0.31
6,SK-LU-1,0.885
7,PC-3 [JPC-3],0.961
8,LOU-NH91,0.689
9,NCI-H647,1.03
10,NCI-H2126,0.706
11,HCC-44,0.781
12,NCI-H1734,0.597
13,NCI-H650,1.11
14,LK-2,1.08
15,NCI-H2228,0.653
16,NCI-H1944,0.709
17,HARA,0.441
18,Calu-6,0.815
19,COR-L23,0.709
20,LCLC-103H,0.859
21,LXF-289,0.957
22,EBC-1,0.72
23,A549,0.578
24,NCI-H1299,0.899
25,IA-LM,0.693
26,NCI-H1703,0.461
27,NCI-H1563,0.85
28,HCC-366,0.25
29,NCI-H2170,0.803
30,ABC-1,0.898

# Same assay, conditions: first compound 5 µM
row,Cell Line,relative viability
1,PC-14,0.946
2,NCI-H1666,1.08
3,EKVX,0.952
4,NCI-H1755,1.02
5,NCI-H2023,0.75
6,HCC-78,0.501
7,SK-LU-1,0.661
8,PC-3 [JPC-3],1.06
9,LOU-NH91,0.649
10,NCI-H647,0.927
11,NCI-H23,0.892
12,EPLC-272H,0.845
13,NCI-H2126,0.787
14,HCC-44,0.709
15,NCI-H1734,0.568
16,NCI-H650,0.729
17,LK-2,1.41
18,NCI-H2228,0.933
19,NCI-H1944,0.964
20,Calu-6,0.834
21,LCLC-103H,1.09
22,LXF-289,1.04
23,EBC-1,0.9
24,A549,0.669
25,NCI-H1299,0.975
26,IA-LM,0.887
27,NCI-H1703,0.289
28,NCI-H1563,0.872
29,NCI-H2170,0.878
30,ABC-1,1.04

# Same assay, conditions: first compound 15.81 µM
row,Cell Line,relative viability
1,PC-14,0.873
2,NCI-H1666,0.985
3,EKVX,0.824
4,NCI-H1755,0.915
5,NCI-H2023,0.582
6,SK-LU-1,0.834
7,PC-3 [JPC-3],0.997
8,LOU-NH91,0.688
9,NCI-H647,1.05
10,NCI-H23,0.605
11,EPLC-272H,0.933
12,NCI-H2126,0.741
13,HCC-44,0.776
14,NCI-H1734,0.671
15,NCI-H650,1.07
16,LK-2,1.3

row,Cell Line,relative viability
1,NCI-H2228,0.566
2,NCI-H1944,0.897
3,HARA,0.785
4,Calu-6,1.05
5,COR-L23,0.68
6,LCLC-103H,0.986
7,LXF-289,0.991
8,EBC-1,0.824
9,A549,0.823
10,NCI-H1299,1.04
11,IA-LM,0.693
12,NCI-H1703,0.372
13,NCI-H1563,0.891
14,HCC-366,0.305
15,NCI-H2170,0.781
16,ABC-1,0.971

# Same assay, conditions: first compound 50 µM
row,Cell Line,relative viability
1,PC-14,0.913
2,NCI-H1666,0.508
3,EKVX,0.776
4,NCI-H1755,0.852
5,NCI-H2023,0.583
6,HCC-78,0.316
7,SK-LU-1,0.565
8,PC-3 [JPC-3],0.848
9,LOU-NH91,0.672
10,NCI-H647,0.975
11,NCI-H23,0.604
12,EPLC-272H,0.943
13,NCI-H2126,0.684
14,HCC-44,0.711
15,NCI-H1734,0.591
16,NCI-H650,0.767
17,LK-2,1.23

row,Cell Line,relative viability
1,NCI-H2228,0.575
2,NCI-H1944,0.822
3,HARA,0.646
4,Calu-6,0.915
5,COR-L23,0.781
6,LCLC-103H,1.11
7,LXF-289,0.956
8,EBC-1,0.423
9,A549,0.691
10,NCI-H1299,1.04
11,IA-LM,0.149
12,NCI-H1703,0.363
13,NCI-H1563,1.02
14,HCC-366,0.365
15,NCI-H2170,0.713
16,ABC-1,0.735
